Legend:
PC12 (TrkA & p75) = experiment: 125I-NGF binding displacement in PC12 cells; parameters: species or system rat; settings: for PC12 (TrkA & p75) Single point (% max binding) Mean: PC12 cells; for blocking of NGF binding (dose-response curve): PC12 cells expressing TrkA and p75, result in words
Method: The method for acquiring the PC12 data described in Table 1 is described herein in Example 1. Each experiment was done at least once with an n value of 4 for each data point. (n/a=not acquired)
(§1) All cells were incubated at 37° C. in 5% CO2. PC12 cells were maintained in RPMI-1640 medium supplemented with 10% fetal bovine serum (FBS). A875 human melanoma cells were maintained in DMEM with 10% FBS. HEK 293 cells were stably transfected with human TrkA plasmid (see below) and maintained in DMEM with 10% FBS and G418 (600 μg/mL) for selection.
NGF binding was evaluated using methods familiar to those who are skilled in the art. Briefly, cells expressing one or both NGF receptors (PC12: TrkA+p75; A875: p75 alone; HEK_trkA: TrkA alone) were harvested by replacing the medium with calcium-magnesium free balanced salt (Grey's) solution and incubating at 37° C. for 15 min. For NGF binding, cells were resuspended at a concentration of 2×10^6 cells/mL in HEPES-Krebs-Ringer (HKR) buffer (10 mM HEPES; 125 mM NaCl; 4.8 mM KCl; 1.3 mM CaCl2; 1.2 mM MgSO4; 1.2 mM KH2PO4; 1 mg/ml BSA; 1 mg/ml glucose; pH 7.4) and exposed to ^125I-NGF (˜0.1 nM) in the presence or absence of varying concentrations of the compound. Non-specific binding was determined for reference by incubating ^125I-NGF with an excess of non-radioactive NGF in the abence of compound. Following a two-hour incubation period at 4° C., ^125I-NGF bound to the cells was quantified in a gamma radiation counter following separation from unbound NGF by filtration or centrifugation through glycerol (10% in HKR). Inhibition of binding was calculated as a percent of the specific binding (calculated as the differential between ^125I-NGF binding in the absence and presence of an excess of non-radioactive NGF without compound). Dose-response inhibition curves were typically generated with seven concentrations of a given compound, with three replicates for each concentration. For most compounds, multiple dose-response curves were generated.
The IC50 data shown in Table 1 were acquired using the procedure described herein using PC12 cells.

[1] = tested on: human TrkA (HEK_trkA: TrkA alone); experiment: 125I-NGF binding displacement in HEK_trkA cells; settings: result in words
Method: as §1
Expression of human TrkA in HEK cells was achieved by transfecting the cells with the TrkA expression vector using Lipofectamine (Invitrogen) reagent. HEK cells were plated in 100 mm Petri dishes at a concentration of 10^6 cells per dish. The next day, a solution of DNA diluted in 1 mL OptiMEM (Invitrogen) per dish was prepared and incubated for 15 min at room temperature. […]
NGF binding was evaluated using methods familiar to those who are skilled in the art. […] Non-specific binding was determined for reference by incubating ^125I-NGF with an excess of non-radioactive NGF in the abence of compound. Following a two-hour incubation period at 4° C., ^125I-NGF bound to the cells was quantified in a gamma radiation counter following separation from unbound NGF by filtration or centrifugation through glycerol (10% in HKR). Inhibition of binding was calculated as a percent of the specific binding (calculated as the differential between ^125I-NGF binding in the absence and presence of an excess of non-radioactive NGF without compound). […]

For O=C(O)c1ccc(Cl)c(N2C(=O)c3cccc4c(C(=O)O)ccc(c34)C2=O)c1 [Compound 99, 2-(5-Carboxy-2-chloro-phenyl)-1,3-dioxo-2,3-dihydro-1H-benzo[de]isoquinoline-6-carboxylic acid], the “PC12 (TrkA & p75) Single point (% max binding) Mean” value (from here on “PC12 … (% max binding) Mean”) (PC12 (TrkA & p75); compound concentration 25 μM) was “* (* > 50)”.
With O=C1c2cccc3cc([N+](=O)[O-])cc(c23)C(=O)N1c1ccc(S(=O)(=O)O)cc1 [Compound 71, 4-(5-Nitro-1,3-dioxo-1H,3H-benzo[de]isoquinolin-2-yl)-benzenesulfonic acid] the “blocking of NGF binding (dose-response curve)” value (PC12 (TrkA & p75)) was “effectively block NGF binding”.
With O=C(O)c1ccc(Cl)c(N2C(=O)c3cccc4c(Cl)ccc(c34)C2=O)c1 [Compound 111, 4-Chloro-3-(6-chioro-1,3-dioxo-1H,3H-benzo[de]isoquinolin-2-yl)-benzoic acid] the “PC12 … (% max binding) Mean” value (PC12 (TrkA & p75); compound concentration 25 μM) was “** (30 > ** > 50)”.
With CCOC(=O)c1cc(N2C(=O)c3cccc4c([N+](=O)[O-])ccc2c34)ccc1Cl [Compound 108, 2-Chloro-5-(6-nitro-2-oxo-2H-benzo[cd]indol-1-yl)-benzoic acid ethyl ester] the “PC12 … (% max binding) Mean” value (PC12 (TrkA & p75); compound concentration 25 μM) was “* (* > 50)”.
For O=C(O)c1ccc(Cl)c(N2C(=O)c3cc(Br)cc4cc([N+](=O)[O-])cc(c34)C2=O)c1 [Compound 53, 3-(5-Bromo-8-nitro-1,3-dioxo-1H,3H-benzo[de]isoquinolin-2-yl)-4-chloro-benzoic acid], the “PC12 … (% max binding) Mean” value (PC12 (TrkA & p75); compound concentration 50 μM) was “* (* > 50)”.
For Nc1cc2c3c(cc(Br)cc3c1)C(=O)N(c1cc(C(=O)O)ccc1Cl)C2=O [Compound 56, 3-(5-Amino-8-bromo-1,3-dioxo-1H,3H-benzo[de]isoquinolin-2-yl)-4-chloro-benzoic acid], the “PC12 … (% max binding) Mean” value (PC12 (TrkA & p75); compound concentration 50 μM) was “* (* > 50)”.
For CC(=O)Nc1ccc(C(=O)O)cc1N1C(=O)c2cccc3cc([N+](=O)[O-])cc(c23)C1=O [Compound 110, 4-Acetylamino-3-(5-nitro-1,3-dioxo-1H,3H-benzo[de]isoquinolin-2-yl)-benzoic acid], the “PC12 … (% max binding) Mean” value (PC12 (TrkA & p75); compound concentration 25 μM) was “** (30 > ** > 50)”.
With Nc1cc2c3c(cc(N)cc3c1)C(=O)N(c1ccc(S(=O)(=O)O)cc1)C2=O [Compound 118, 4-(5,8-Diamino-1,3-dioxo-1H,3H-benzo[de]isoquinolin-2-yl)-benzenesulfonic acid] the “PC12 … (% max binding) Mean” value (PC12 (TrkA & p75); compound concentration 50 μM) was “** (30 > ** > 50)”.
O=C(O)c1ccc(Cl)c(N2C(=O)c3cc([N+](=O)[O-])cc4cc([N+](=O)[O-])cc(c34)C2=O)c1 [Compound 7, 4-Chloro-3-(5,8-dinitro-1,3-dioxo-1H,3H-benzol[de]isoquinolin-2-yl)-benzoic acid] was tested, and the “blocking of NGF binding (dose-response curve)” value (PC12 (TrkA & p75)) was “effectively blocks NGF binding”.
CC(=O)Nc1cc2c3c(cc(NC(C)=O)cc3c1)C(=O)N(c1cccc(C(=O)O)c1)C2=O [Compound 94, 3-(5,8-Bis-acetylamino-1,3-dioxo-1H,3H-benzo[de]isoquinolin-2-yl)-benzoic acid] was tested, and the “blocking of NGF binding (dose-response curve)” value (PC12 (TrkA & p75)) was “effectively blocks NGF binding” and the “blocking of NGF binding to TrkA (dose-response curve)” value [1] was “effectively blocks NGF binding to TrkA”.
O=C(O)c1cccc(N2C(=O)c3cccc4cccc2c34)c1 [Compound 107, 3-(2-Oxo-2H-benzo[cd]indol-1-yl)-benzoic acid] was tested, and the “PC12 … (% max binding) Mean” value (PC12 (TrkA & p75); compound concentration 25 μM) was “** (30 > ** > 50)”.
With CC(=O)Nc1cc2c3c(cc(NC(C)=O)cc3c1)C(=O)N(c1ccc(S(=O)(=O)O)cc1)C2=O [Compound 119, 4-(5,8-Bis-acetylamino-1,3-dioxo-1H,3H-benzol[de]isoquinolin-2-yl)-benzenesulfonic acid] the “PC12 … (% max binding) Mean” value (PC12 (TrkA & p75); concentration cell printed as '═') was “** (30 > ** > 50)”.
In the case of CCOC(=O)c1cccc(N2C(=O)c3cccc4c([N+](=O)[O-])ccc2c34)c1 [Compound 106, 3-(6-Nitro-2-oxo-2H-benzo[cd]indol-1-yl)-benzoic acid ethyl ester], the “PC12 … (% max binding) Mean” value (PC12 (TrkA & p75); compound concentration 25 μM) is reported as “* (* > 50)”.
With O=C(O)c1ccc(Cl)c(N2C(=O)c3cccc4c(C(=O)c5ccccc5)ccc(c34)C2=O)c1 [Compound 98, 3-(6-Benzoyl-1,3-dioxo-1H,3H-benzo[de]isoquinolin-2-yl)-4-chloro-benzoic acid] the “PC12 … (% max binding) Mean” value (PC12 (TrkA & p75); compound concentration 25 μM) was “*** (0 > *** > 30)”.
In the case of CC(=O)Nc1cc2c3c(cc(Br)cc3c1)C(=O)N(c1cc(C(=O)O)ccc1Cl)C2=O [Compound 57, 3-(5-Acetylamino-8-bromo-1,3-dioxo-1H,3H-benzo[de]isoquinolin-2-yl)-4-chloro-benzoic acid], the “PC12 … (% max binding) Mean” value (PC12 (TrkA & p75); compound concentration 50 μM) is reported as “** (30 > ** > 50)”.
For O=C(O)c1cc(Cl)cc(N2C(=O)c3cccc4cc([N+](=O)[O-])cc(c34)C2=O)c1Cl [Compound 51, 2,5-Dichloro-3-(5-nitro-1,3-dioxo-1H,3H-benzo[de]isoquinolin-2-yl)-benzoic acid], the “PC12 … (% max binding) Mean” value (PC12 (TrkA & p75); compound concentration 50 μM) was “* (* > 50)”.
With CCOC(=O)c1cccc(N2C(=O)c3cccc4cccc2c34)c1 [Compound 105, 3-(2-Oxo-2H-benzo[cd]indol-1-yl)-benzoic acid ethyl ester] the “PC12 … (% max binding) Mean” value (PC12 (TrkA & p75); compound concentration 25 μM) was “* (* > 50)”.

Source: US20070123514A1, “Methods of modulating neurotrophin-mediated activity” (PainCeptor Pharma Corporation, priority 2005, published 2007)
